# Laboratory results taken from paper PMC5234788 (PLoS ONE, 2017).
# pIC50: −log10 of the molar value.
# How the values were obtained:
# [1] = target: T1, human D2 dopamine receptor (Homo sapiens, UniProt P14416); assay: biochemical; format: biochemical
# T1 construct: host or cells: HEK293
# From the text: D2-D4 dopamine receptors and 5-HT1A serotonin receptors are Gαi-coupled receptors that mediate inhibitory neurotransmission. We conducted [^35S]GTPγS assays to determine the agonist or antagonist properties of l-THBr at D2 dopamine receptors or 5-HT1A serotonin receptors. HEK293 cells stably expressing D2 receptors were provided by the Beijing Institute of Pharmacology and Toxicology (Beijing, China). The membrane preparation of D2-expressing HEK293 cells and rat hippocampal tissues highly expressing 5-HT1A receptors were prepared as previously described. Briefly, 10 SD rats were anesthetized and decapitated, and the hippocampi were quickly dissected and stored at -80°C until use. D2 receptor-expressing HEK293 cells and the hippocampal tissue were each homogenized at 4°C in 50 mM Tris-HCl buffer (pH 7.4). The homogenates were centrifuged at 2500 × g for 6 min, and the supernatant was further centrifuged for 20 min at 40000 × g. Membranes were re-suspended in Tris-HCl buffer and stored at -80°C until use.
# [^35S]GTPγS assays were performed in a total volume of 0.5 ml at 4°C. […] Bound radioactivity was determined by liquid scintillation counting. Drug effects were expressed as drug-induced increase in binding over basal binding (binding in the absence of drugs). […] The inhibitory effect of l–THBr was determined by a similar equation to obtain the IC50 values.
# [2] = test system: Glutamate, AMPA Site (Ionotropic); assay: Radio-ligand binding assay, Glutamate AMPA site; conditions: 10 μM l-THBr; radioligand [3H]AMPA
# Description: To determine the possible targets of l-THBr action, the binding affinities of l-THBr to neurotransmitter receptors known to be involved in sedation, hypnosis and anxiety were investigated. Radio-ligand binding assays were performed by Caliper Lifescience (Hopkinton, MA, USA). The screening was carried out at a concentration of 10 μM l–THBr to test its ability to inhibit the binding of radioligands to their corresponding receptors. The results were expressed as percentage of inhibition of labeled ligand binding to individual receptors. Significant binding activity was defined as ≥50%.
# T1 sequence (P14416 whole entry): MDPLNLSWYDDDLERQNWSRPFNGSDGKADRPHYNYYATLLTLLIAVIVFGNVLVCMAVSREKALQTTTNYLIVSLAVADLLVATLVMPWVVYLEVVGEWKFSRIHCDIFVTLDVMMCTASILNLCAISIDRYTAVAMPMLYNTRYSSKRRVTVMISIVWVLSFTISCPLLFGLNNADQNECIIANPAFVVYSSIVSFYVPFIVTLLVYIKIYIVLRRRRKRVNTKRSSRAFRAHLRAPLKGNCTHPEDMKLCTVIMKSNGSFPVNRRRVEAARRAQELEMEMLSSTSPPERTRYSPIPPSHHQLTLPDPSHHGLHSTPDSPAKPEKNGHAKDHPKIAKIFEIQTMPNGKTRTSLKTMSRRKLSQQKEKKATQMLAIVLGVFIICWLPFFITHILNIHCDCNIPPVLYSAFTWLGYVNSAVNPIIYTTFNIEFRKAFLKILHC
compound,measurement,setting,value
"COc1ccc2c(c1O)CN1CCc3cc4c(cc3[C@@H]1C2)OCO4 [l-THBr, levo-tetrahydroberberrubine]",pIC50,[1],8.28
same,dose-dependent increase in [35S]GTPγS binding (agonist effect),[1],but not l-THBr induced a dose-dependent increase
same,Average inhibition percentage,[2],0.31%
